Earlier results as cited in patent US7012060B1, “TNF receptor and steroid hormone in a combined therapy” (priority 1995, dated 2006).

Experiments:
[1] = test system: systemic lupus erythematosus; details: mouse model; cited from earlier work
[2] = test system: septic shock induced by Tumor Necrosis Factor alpha (TNF-α) in combination with D-Galactosamine; details: mice; cited from earlier work

C[C@]12CC[C@H](O)CC1=CC[C@@H]1[C@@H]2CC[C@]2(C)C(=O)CC[C@@H]12 [DHEA, Dehydroepiandrosterone]
development of systemic lupus erythematosus [1]: prevent the development
protection from septic shock [2]: protecting mice from septic shock
